Test results taken from publication PMC2801581 (Journal of medicinal chemistry, 2009).
Where two headings read alike, the source gives them in different places.

Assays:
PTP-PEST = target: T1, PTP-PEST (Homo sapiens, UniProt Q05209); experiment: PTP-PEST inhibition assay with fluorogenic substrates; type: biochemical; conditions: pH 6.5
T1 sequence (Q05209 2-323): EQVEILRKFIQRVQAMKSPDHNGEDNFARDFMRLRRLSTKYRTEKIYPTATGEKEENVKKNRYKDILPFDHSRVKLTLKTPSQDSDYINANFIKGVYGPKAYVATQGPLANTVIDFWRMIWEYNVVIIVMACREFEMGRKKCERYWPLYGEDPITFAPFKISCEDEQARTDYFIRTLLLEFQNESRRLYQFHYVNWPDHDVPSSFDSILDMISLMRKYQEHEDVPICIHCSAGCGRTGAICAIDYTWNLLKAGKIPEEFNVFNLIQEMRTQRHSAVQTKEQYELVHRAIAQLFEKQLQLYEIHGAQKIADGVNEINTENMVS

HePTP = target: T2, HePTP (Homo sapiens, UniProt P35236); experiment: HePTP counterscreen; type: biochemical; conditions: read-out: IC50 HePTP (DiFMUP)
T2 sequence (P35236 65-360): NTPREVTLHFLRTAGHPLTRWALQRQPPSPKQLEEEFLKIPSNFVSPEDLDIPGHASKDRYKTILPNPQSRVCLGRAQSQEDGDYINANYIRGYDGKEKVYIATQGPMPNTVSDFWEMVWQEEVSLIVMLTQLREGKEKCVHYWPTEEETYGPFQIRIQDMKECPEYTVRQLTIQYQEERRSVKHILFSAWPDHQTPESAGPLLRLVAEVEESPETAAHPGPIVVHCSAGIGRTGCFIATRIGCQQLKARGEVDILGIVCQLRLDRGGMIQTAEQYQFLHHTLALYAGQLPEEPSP

LYP [1] = target: T3, LYP (Homo sapiens, UniProt Q9Y2R2); experiment: LYP inhibition assay with fluorogenic substrates; type: biochemical; conditions: for LYP versus PTP-PEST inhibition in comparative library screen: nominal 5 µM, DiFMUP and peptide 1; for IC50: pH 6.5; for selectivity for LYP over PTP-PEST in dose-response screens: in vitro, Table 1
T3 sequence (Q9Y2R2 2-309): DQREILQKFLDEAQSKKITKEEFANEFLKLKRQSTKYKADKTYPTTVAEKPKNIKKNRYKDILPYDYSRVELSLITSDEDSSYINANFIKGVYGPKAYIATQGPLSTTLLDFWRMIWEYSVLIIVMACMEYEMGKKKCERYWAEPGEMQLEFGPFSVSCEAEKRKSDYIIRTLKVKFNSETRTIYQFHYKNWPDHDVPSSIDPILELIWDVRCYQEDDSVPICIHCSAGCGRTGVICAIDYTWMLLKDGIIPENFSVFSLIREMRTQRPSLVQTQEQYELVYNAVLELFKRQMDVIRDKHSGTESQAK

CD45 [2] = target: T4, CD45 (Homo sapiens, UniProt P08575); experiment: CD45 counterscreen; type: biochemical; conditions: read-out: IC50 CD45 (DiFMUP)
T4 sequence (P08575 653-912 limits assumed): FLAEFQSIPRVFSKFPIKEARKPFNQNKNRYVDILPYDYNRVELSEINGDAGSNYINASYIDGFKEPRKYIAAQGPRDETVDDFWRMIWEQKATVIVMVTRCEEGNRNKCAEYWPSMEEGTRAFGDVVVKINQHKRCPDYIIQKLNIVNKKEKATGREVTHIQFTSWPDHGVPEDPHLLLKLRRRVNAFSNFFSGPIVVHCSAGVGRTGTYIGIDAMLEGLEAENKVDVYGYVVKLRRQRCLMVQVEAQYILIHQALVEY

PTP1B = target: T5, PTP1B (Homo sapiens, UniProt P18031); experiment: PTP1B inhibition assay with fluorogenic substrates; type: biochemical; conditions: for IC50: pH 7.1; for PTP1B inhibition in library screen, peptide 2 versus DiFMUP: nominal 5 µM
T5 sequence (P18031 3-277 limits assumed): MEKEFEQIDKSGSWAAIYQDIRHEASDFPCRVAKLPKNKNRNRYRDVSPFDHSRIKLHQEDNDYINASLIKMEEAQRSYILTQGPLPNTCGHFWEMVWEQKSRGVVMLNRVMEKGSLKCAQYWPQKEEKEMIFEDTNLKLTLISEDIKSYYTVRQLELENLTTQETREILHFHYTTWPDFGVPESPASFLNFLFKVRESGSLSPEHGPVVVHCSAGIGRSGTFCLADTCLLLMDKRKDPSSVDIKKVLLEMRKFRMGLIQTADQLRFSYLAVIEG

TCPTP = target: T6, TCPTP (Homo sapiens, UniProt P17706); experiment: TCPTP inhibition assay with fluorogenic substrates; type: biochemical; conditions: for IC50: pH 7.1
T6 sequence (P17706 5-275 limits assumed): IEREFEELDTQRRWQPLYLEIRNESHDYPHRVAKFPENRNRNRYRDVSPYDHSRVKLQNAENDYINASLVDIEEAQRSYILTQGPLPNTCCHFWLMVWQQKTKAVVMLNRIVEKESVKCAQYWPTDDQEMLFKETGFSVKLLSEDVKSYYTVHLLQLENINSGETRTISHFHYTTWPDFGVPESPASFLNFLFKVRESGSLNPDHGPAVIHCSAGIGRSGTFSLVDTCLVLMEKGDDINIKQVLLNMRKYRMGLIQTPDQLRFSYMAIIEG

CD45 [3] = target: T7, CD45 (Homo sapiens, UniProt P08575); experiment: Intracellular CD45 inhibition in JTAg cells, anti-pLck; type: cell-based; conditions: JTAg cells; 50 µM of 17 and 34, 25 µM of 39, 1 h
T7 sequence (P08575 26-1306): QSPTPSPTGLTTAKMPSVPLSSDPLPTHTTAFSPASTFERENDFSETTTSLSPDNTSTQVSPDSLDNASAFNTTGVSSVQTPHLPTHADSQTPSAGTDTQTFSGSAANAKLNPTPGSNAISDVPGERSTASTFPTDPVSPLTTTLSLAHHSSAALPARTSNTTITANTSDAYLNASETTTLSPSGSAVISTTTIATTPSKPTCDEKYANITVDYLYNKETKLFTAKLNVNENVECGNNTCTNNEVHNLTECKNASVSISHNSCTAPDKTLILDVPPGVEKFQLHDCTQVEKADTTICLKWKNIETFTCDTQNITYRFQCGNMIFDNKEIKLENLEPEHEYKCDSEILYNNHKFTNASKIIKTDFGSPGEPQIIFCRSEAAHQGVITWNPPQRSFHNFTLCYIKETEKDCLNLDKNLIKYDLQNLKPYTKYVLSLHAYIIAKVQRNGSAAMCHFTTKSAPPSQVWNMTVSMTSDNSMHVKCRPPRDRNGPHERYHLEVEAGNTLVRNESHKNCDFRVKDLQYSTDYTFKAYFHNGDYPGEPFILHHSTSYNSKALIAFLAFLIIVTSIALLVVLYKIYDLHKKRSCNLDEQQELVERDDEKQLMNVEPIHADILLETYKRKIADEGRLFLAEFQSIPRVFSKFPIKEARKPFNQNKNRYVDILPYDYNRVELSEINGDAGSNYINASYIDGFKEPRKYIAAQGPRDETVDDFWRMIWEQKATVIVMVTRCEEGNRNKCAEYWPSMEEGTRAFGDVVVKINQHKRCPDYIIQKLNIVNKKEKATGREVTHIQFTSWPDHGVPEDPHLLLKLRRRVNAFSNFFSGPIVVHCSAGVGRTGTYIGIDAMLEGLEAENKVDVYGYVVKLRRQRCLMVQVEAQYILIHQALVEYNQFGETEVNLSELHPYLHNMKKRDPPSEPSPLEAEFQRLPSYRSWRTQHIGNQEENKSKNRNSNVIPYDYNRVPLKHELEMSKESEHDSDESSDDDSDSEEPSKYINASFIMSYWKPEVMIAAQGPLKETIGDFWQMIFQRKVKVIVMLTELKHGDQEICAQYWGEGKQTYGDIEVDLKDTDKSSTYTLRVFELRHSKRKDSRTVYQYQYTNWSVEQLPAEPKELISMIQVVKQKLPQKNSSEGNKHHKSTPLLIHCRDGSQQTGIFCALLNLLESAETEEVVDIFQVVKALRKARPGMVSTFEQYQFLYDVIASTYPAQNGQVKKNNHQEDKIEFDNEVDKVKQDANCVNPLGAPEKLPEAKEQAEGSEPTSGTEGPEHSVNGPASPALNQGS

LYP [4] = experiment: Intracellular LYP inhibition in JTAg cells, anti-pLck; type: cell-based, human; conditions: JTAg cells, TCR stimulated (C305, 2 min); 50 µM of 17 and 34, 25 µM of 39, 1 h
[5] = read-out: IC50 PEST (peptide 1)
[6] = read-out: IC50 LYP (DiFMUP), substrate DiFMUP 1.5 µM
[7] = read-out: IC50 LYP (peptide 1), substrate peptide 1 10 µM
[8] = read-out: IC50 PEST (DiFMUP), substrate DiFMUP 1.5 µM
[9] = read-out: IC50 PEST (peptide 1), substrate peptide 1 10 µM
[10] = read-out: IC50 PTP1B (DiFMUP), substrate DiFMUP 1.5 µM
[11] = read-out: IC50 PTP1B (peptide 2), substrate peptide 2 60 µM
[12] = read-out: IC50 TCPTP (DiFMUP), substrate DiFMUP 1.5 µM
[13] = read-out: IC50 TCPTP (peptide 2), substrate peptide 2 60 µM

| SMILES | LYP versus PTP-PEST inhibition in comparative library screen (LYP [1]) | IC50 (LYP [1]; [6]) [µM] | IC50 (LYP [1]; [7]) [µM] | IC50 (PTP-PEST; [8]) [µM] | IC50 (PTP-PEST; [9]) [µM] | IC50 (HePTP; substrate DiFMUP) [µM] | selectivity for LYP over PTP-PEST in dose-response screens (LYP [1]) | IC50 (CD45 [2]; substrate DiFMUP) [µM] | other results |
| --- | --- | --- | --- | --- | --- | --- | --- | --- | --- |
| O=S(=O)(O)c1cccc([P+]([Au-][Cl])(c2ccccc2)c2ccccc2)c1 [Compound 12, 3-(Diphenylphosphino)benzenesulfonic acid-Au(I)-Cl] | appear LYP-selective when DiFMUP is used in the assay, but not when the peptide is used | 2 ± 0.1 | 1.9 ± 0.2 | – | – | – | – | – | IC50 (PTP-PEST; read-out: IC50 PEST (DiFMUP)): 70 ± 2 µM; IC50 (PTP-PEST; [5]): 4 ± 0.2 µM; IC50 (HePTP): 40 ± 1 µM; selectivity for LYP over PTP-PEST (LYP [1]; with DiFMUP as substrate): 35 fold; selectivity for LYP over PTP-PEST (LYP [1]; with peptide 1 as substrate): 2 fold; IC50 (CD45 [2]): > 70 µM |
| CP(C)c1ccccc1.[Cl][Au] [Compound 13, Dimethylphenylphosphine-Au(I)-Cl] | more potent inhibitors of LYP than PTP-PEST regardless of the substrate used | 3.5 ± 0.3 | 2 ± 0.3 | 70 ± 2 | 30 ± 2 | > 50 | selective for LYP over the ~ 70% identical PTP-PEST | > 100 | – |
| O=S(=O)(O)c1ccc([P+]([Au-][Cl])(c2ccccc2)c2ccc(S(=O)(=O)O)cc2)cc1 [Compound 18, 4,4′-(Phenylphosphinidene)bis(benzenesulfonic acid)-Au(I)-Cl] | – | 2 ± 0.1 | 0.85 ± 0.05 | – | – | – | selective for LYP over the ~ 70% identical PTP-PEST | – | IC50 (PTP-PEST; read-out: IC50 PEST (DiFMUP)): 39 ± 1 µM; IC50 (PTP-PEST; [5]): 10 ± 2 µM; IC50 (HePTP): 16 ± 2 µM; selectivity between PTP1B and TCPTP in dose-response screens (PTP1B): no significant selectivity with DiFMUP; IC50 (PTP1B; read-out: IC50 PTP1B (DiFMUP)): 16 ± 1 µM; IC50 (PTP1B; read-out: IC50 PTP1B (peptide 2)): 15 ± 1 µM; IC50 (CD45 [2]): 26 ± 1 µM; TCPTP versus PTP1B inhibition in comparative library screen (TCPTP): slightly TCPTP selective with peptide 2; selectivity for TCPTP (over PTP1B) (TCPTP): approximately 2 fold; IC50 (TCPTP; read-out: IC50 TCPTP (DiFMUP)): 16 ± 1 µM; IC50 (TCPTP; read-out: IC50 TCPTP (peptide 2)): 7.5 ± 0.3 µM |
| [Cl][Au][PH](c1ccco1)(c1ccco1)c1ccco1 [Compound 19, Tri-2-furylphosphine-Au(I)-Cl] | – | – | – | – | – | – | – | – | selectivity between PTP1B and TCPTP in dose-response screens (PTP1B; Table 2): selective for PTP1B with both substrates; PTP1B inhibition in library screen, peptide 2 versus DiFMUP (PTP1B): inhibit PTP1B better with peptide 2 than with DiFMUP; IC50 (PTP1B; [10]): 0.33 ± 0.02 µM; IC50 (PTP1B; [11]): 0.2 ± 0.02 µM; IC50 (TCPTP; [12]): 2.4 ± 0.2 µM; IC50 (TCPTP; [13]): 2.2 ± 0.3 µM |
| [Cl][Au][PH](C1CCCCC1)(C1CCCCC1)C1CCCCC1 [Compound 25, Tricyclohexylphosphine-Au(I)-Cl] | appear LYP-selective when DiFMUP is used in the assay, but not when the peptide is used | 25 ± 1 | 61 ± 1 | 45 ± 1 | > 80 | 20 ± 2 | – | > 70 | – |
| N#CCC[P+](CCC#N)([Au-][Cl])c1ccccc1 [Compound 28, Bis(2-cyanoethyl)phenylphosphine-Au(I)-Cl] | – | 3.5 ± 0.1 | 2.5 ± 0.6 | > 80 | 33 ± 1 | > 50 | selective for LYP over the ~ 70% identical PTP-PEST | > 70 | – |
| CCP(CC)CC.[Au+].[Cl-] [Compound 39] | appears LYP selective with peptide 1, but not with DiFMUP | 33 ± 3 | 26 ± 2 | > 150 | 93 ± 9 | 120 ± 5 | selective for LYP over the ~ 70% identical PTP-PEST | 33 ± 3 | phosphorylation of Lck at Y505 (CD45 activity in cells) (CD45 [3]): increase in this band; selectivity for LYP over PTP-PEST (LYP [1]; with peptide 1 as substrate): ~4 fold; phosphorylation of Lck at Y394 (LYP activity in cells) (LYP [4]): increase in phosphorylation at Y394 |
| Fc1c(F)c(F)c([PH]([Au][Cl])(c2c(F)c(F)c(F)c(F)c2F)c2c(F)c(F)c(F)c(F)c2F)c(F)c1F [Compound 40] | – | – | – | – | – | – | – | – | selectivity between PTP1B and TCPTP in dose-response screens (PTP1B; Table 2): no significant selectivity with DiFMUP; PTP1B inhibition in library screen, peptide 2 versus DiFMUP (PTP1B): the reverse seems to be true; IC50 (PTP1B; [10]): 7.5 ± 0.2 µM; IC50 (PTP1B; [11]): 5.4 ± 0.3 µM; selectivity for PTP1B (over TCPTP) (PTP1B; with peptide 2 as substrate): ~10 fold; IC50 (TCPTP; [12]): 6.7 ± 0.2 µM; IC50 (TCPTP; [13]): 57 ± 1 µM |
